Tested on: NCI-H929 multiple myeloma cells
Test: Cell Titer-GLO (CTG) assay for proliferation of NCI-H929 cells
Assay type: cell-based
Conditions: Homo sapiens, 72 hours
Protocol: 1. Experimental objective: To determine inhibitory activities of compounds on NCI-H929 multiple myeloma cells.
NCI-H929 cells, purchased from Nanjing Cobioer Biotechnology Co., Ltd, were cultured in RPM11640 (Viva; C3010-0500) medium containing 10% fetal bovine serum (Viva, C04002-500) and 1% of penicillin-streptomycin at 37° C. with 5% of C02 and saturated humidity conditions.
The cells in logarithmic growth phase were plated at 5000 cells per well of a 96-well plate and after overnight incubation, compounds at 0.00512 nM, 0.0256 nM, 0.128 nM, 0.64 nM, 3.2 nM, 16 nM, 80 nM, and 400 nM were dosed into the plate with each dose in 2 duplicate wells. Cells were incubated at 37° C., 5% CO2 for 72 hours. After the incubation, the plate was placed at room temperature for half an hour, and then 50 μL of Cell Titer-Glo® (Promega, G7573) was added. The plate was placed on a shaker for uniform mixing for 2 minutes and was placed in the dark at room temperature for 10 minutes. The luminance signal was measured using SpectraMax Paradigm (Molecular Devices).
Cell activity inhibition rate (%)=1 00−(RLUcompound−RLUblank)/(RLUcontrol−RLUblank)×100%, where control refers to the 0.1% DMSO treatment group, and blank refers to the culture medium control. IC50 values and maximum inhibition rates of the compounds were calculated using a nonlinear regression function “Dose-Response-Inhibition” in Graphpad Prism 7.0.

IC50 [nM] | Structure (SMILES)
0.01 | O=C1CCC(N2C(=O)c3cccc4c(Cc5ccc(CN6CCN(c7ccnc(-n8cnc(C(F)(F)F)n8)n7)CC6)cc5)ccc2c34)C(=O)N1 (stereo not drawn) [Example 39, 3-(2-oxo-6-(4-((4-(2-(3-(trifluoromethyl)-1H-1,2,4-triazol-1-yl)pyrimidin-4-yl)piperazin-1-yl)methyl)benzyl)benzo[cd]indol-1(2H)-yl)piperidin-2,6-dione]
1.6 | CC(C)N1CCN=C1c1cccc(N2CCN(Cc3ccc(Cc4ccc5c6c(cccc46)C(=O)N5C4CCC(=O)NC4=O)cc3)CC2)n1 (stereo not drawn) [Example 79, 3-(6-(4-((4-(6-(1-isopropyl-4,5-dihydro-1H-imidazol-2-yl)pyridin-2-yl)piperazin-1-yl)methyl)benzyl)-2-oxobenzo[cd]indol-1(2H)-yl)piperidin-2,6-dione]
0.05 | O=C1CC[C@H](N2Cc3c(OCc4ccc(CN5CCN([C@H]6CC[C@H](NC(=O)c7cccc(-n8ccnc8)n7)CC6)CC5)cc4)cccc3C2=O)C(=O)N1 [Example 16, N-((1R,4R)-4-(4-(4-(((2-((S)-2,6-dioxopiperidin-3-yl)-1-oxoisoindolin-4-yl)oxy)methyl)benzyl)piperazin-1-yl)cyclohexyl)-6-(1H-imidazol-1-yl)pyridin-2-carboxamide]
0.1 | CC(C)n1cnnc1-c1cccc(N2CCN(Cc3ccc(Cc4ccc5c6c(cccc46)C(=O)N5C4CCC(=O)NC4=O)cc3)CC2)n1 (stereo not drawn) [Example 24, 3-(6-(4-((4-(6-(4-isopropyl-4H-1,2,4-triazol-3-yl)pyridin-2-yl)piperazin-1-yl)methyl)benzyl)-2-oxobenzo[cd]indol-1(2H)-yl)piperidin-2,6-dione]
0.1 | Cc1nc(N2CCN(C3CN(Cc4ccc(COc5cccc6c5CN([C@H]5CCC(=O)NC5=O)C6=O)cc4)C3)CC2)cc(-n2cnc(C(F)(F)F)c2)n1 [Example 78, (S)-3-(4-((4-((3-(4-(2-methyl-6-(4-(trifluoromethyl)-1H-imidazol-1-yl)pyrimidin-4-yl)piperazin-1-yl)azetidin-1-yl)methyl)benzyl)oxy)-1-oxoisoindolin-2-yl)piperidin-2,6-dione]
0.01 | Cc1nnc(-c2cccc(N3CCN(Cc4ccc(Cc5ccc6c7c(cccc57)C(=O)N6[C@H]5CCC(=O)NC5=O)cc4)CC3)n2)s1 [Example 35, (S)-3-(6-(4-((4-(6-(5-methyl-1,3,4-thiadiazol-2-yl)pyridin-2-yl)piperazin-1-yl)methyl)benzyl)-2-oxobenzo[cd]indol-1(2H)-yl)piperidin-2,6-dione]
0.1 | O=C1CCC(N2C(=O)c3cccc4c(Cc5ccc(CN6CCN(c7cc(C(F)(F)F)nc(-n8cnc(C(F)(F)F)c8)n7)CC6)cc5)ccc2c34)C(=O)N1 (stereo not drawn) [Example 56, 3-(2-oxo-6-(4-((4-(6-(trifluoromethyl)-2-(4-(trifluoromethyl)-1H-imidazol-1-yl)pyrimidin-4-yl)piperazin-1-yl)methyl)benzyl)benzo[cd]indol-1(2H)-yl)piperidin-2,6-dione]
0.07 | O=C1CCC(N2C(=O)c3cccc4c(Cc5ccc(CN6CCC(NC(=O)c7cccc(-n8ccnc8)n7)CC6)cc5)ccc2c34)C(=O)N1 (stereo not drawn) [Example 6, N-(1-(4-((1-(2,6-dioxopiperidin-3-yl)-2-oxo-1,2-dihydrobenzo[cd]indol-6-yl)methyl)benzyl)piperidin-4-yl)-6-(1H-imidazol-1-yl)pyridin-2-carboxamide]
0.1 | Cc1nc(N2CCN(Cc3ccc(Cc4ccc5c6c(cccc46)C(=O)N5C4CCC(=O)NC4=O)cc3)CC2)cc(-n2ncc(C(F)(F)F)n2)n1 (stereo not drawn) [Example 76, 3-(6-(4-((4-(2-methyl-6-(4-(trifluoromethyl)-2H-1,2,3-triazol-2-yl)pyrimidin-4-yl)piperazin-1-yl)methyl)benzyl)-2-oxobenzo[cd]indol-1(2H)-yl)piperidin-2,6-dione]
0.006 | Cc1ncn(-c2nccc(N3CCN(Cc4ccc(Cc5ccc6c7c(cccc57)C(=O)N6C5CCC(=O)NC5=O)cc4)CC3)n2)n1 (stereo not drawn) [Example 41, 3-(6-(4-((4-(2-(3-methyl-1H-1,2,4-triazol-1-yl)pyrimidin-4-yl)piperazin-1-yl)methyl)benzyl)-2-oxobenzo[cd]indol-1(2H)-yl)piperidin-2,6-dione]
0.01 | N#Cc1cn(-c2nccc(N3CCN(Cc4ccc(Cc5ccc6c7c(cccc57)C(=O)N6C5CCC(=O)NC5=O)cc4)CC3)n2)cn1 (stereo not drawn) [Example 44, 3-(6-(4-((4-(2-(4-cvano-1H-imidazol-1-yl)pyrimidin-4-yl)piperazin-1-yl)methyl)benzyl)-2-oxobenzo[cd]indol-1(2H)-yl)piperidin-2,6-dione]
0.02 | N#Cc1cn(-c2nc(N3CCN(Cc4ccc(Cc5ccc6c7c(cccc57)C(=O)N6C5CCC(=O)NC5=O)cc4)CC3)cc(C(F)(F)F)n2)cn1 (stereo not drawn) [Example 75, 3-(6-(4-((4-(2-(4-cyano-1H-imidazol-1-yl)-6-(trifluoromethyl)pyrimidin-4-yl)piperazin-1-yl)methyl)benzyl)-2-oxobenzo[cd]indol-1(2H)-yl)piperidin-2,6-dione]
0.03 | O=C1CCC(N2C(=O)c3cccc4c(Cc5ccc(CN6CCN(c7nc(-c8cncs8)ncc7F)CC6)cc5)ccc2c34)C(=O)N1 (stereo not drawn) [Example 60, 3-(6-(4-((4-(5-fluoro-2-(thiazol-5-yl)pyrimidin-4-yl)piperazin-1-yl)methyl)benzyl)-2-oxobenzo[cd]indol-1(2H)-yl)piperidin-2,6-dione]
0.03 | Cc1cc(N2CCN(Cc3ccc(Cc4ccc5c6c(cccc46)C(=O)N5C4CCC(=O)NC4=O)cc3)CC2)nc(-n2ccnc2)n1 (stereo not drawn) [Example 10, 3-(6-(4-((4-(2-(1H-imidazol-1-yl)-6-methylpyrimidin-4-yl)piperazin-1-yl)methyl)benzyl)-2-oxobenzo[cd]indol-1(2H)-yl)piperidin-2,6-dione]
0.02 | Cc1nc(N2CCN(Cc3ccc(Cc4ccc5c6c(cccc46)C(=O)N5C4CCC(=O)NC4=O)cc3)CC2)cc(-n2cnc(C)n2)n1 (single isomer, unassigned) [Example 47]
0.003 | Cc1ncn(-c2ncc(F)c(N3CCN(C4CN(Cc5ccc(Cc6ccc7c8c(cccc68)C(=O)N7C6CCC(=O)NC6=O)cc5)C4)CC3)n2)n1 (stereo not drawn) [Example 49, 3-(6-(4-((3-(4-(5-fluoro-2-(3-methyl-1H-1,2,4-triazol-1-yl)pyrimidin-4-yl)piperazin-1-yl)azetidin-1-yl)methyl)benzyl)-2-oxobenzo[cd]indol-1(2H)-yl)piperidin-2,6-dione]
0.07 | Cc1ncc(-c2ncc(F)c(N3CCN(Cc4ccc(Cc5ccc6c7c(cccc57)C(=O)N6C5CCC(=O)NC5=O)cc4)CC3)n2)s1 (stereo not drawn) [Example 67, 3-(6-(4-((4-(5-fluoro-2-(2-methylthiazol-5-yl)pyrimidin-4-yl)piperazin-1-yl)methyl)benzyl)-2-oxobenzo[cd]indol-1(2H)-yl)piperidin-2,6-dione]
0.02 | [2H]C([2H])(c1ccc(Cc2ccc3c4c(cccc24)C(=O)N3C2CCC(=O)NC2=O)cc1)N1CCN(c2cc(-n3cnc(C(F)(F)F)c3)nc(C)n2)CC1 (stereo not drawn) [Example 82, 3-(6-(4-((4-(2-methyl-6-(4-(trifluoromethyl)-1H-imidazol-1-yl)pyrimidin-4-yl)piperazin-1-yl)methyl-d2)benzyl)-2-oxobenzo[cd]indol-1(2H)-yl)piperidin-2,6-dione]
